Experimental data from PMC6065317, “Rice Defensin OsAFP1 is a New Drug Candidate against Human Pathogenic Fungi” (Scientific Reports, 2018).
Where two headings read alike, the source gives them in different places. Where a SMILES comes first, the peptide text is derived from it. Where no end group is shown, it is not given here.

Experiments:
[1] = test system: Candida species; conditions: existing antifungal drugs; cited from earlier work
Procedure: In the present study, functional analyses of the antifungal activity of the rice-derived defensin OsAFP1 were performed. […] Since MIC values of the existing antifungal drugs, such as fluconazole, amphotericin B, and caspofungin, are in the 0.01–1 μM range[48], further engineering to enhance its function may be required before OsAFP1 can be used as a drug. On the other hand, OsAFP1 was extremely stable upon heat and serum treatments and exerted its antifungal activity by inducing apop ...

[2] = test system: C. albicans CAI4 (IFM 61937); conditions: for IC50: OD650
Procedure: (§1) Seven microbial strains were used for OsAFP1 antimicrobial activity testing. P. gingivalis ATCC 33277 cells were cultured in modified Gifu anaerobic medium (GAM) (Nissui, Tokyo, Japan) in an anaerobic jar (Mitsubishi Gas Chemical, Tokyo, Japan) in the presence of a deoxygenating regent (AnaeroPack, Mitsubishi Gas Chemical) for 48 h at 37 °C. E. coli K-12 NBRC3301, S. mutans JCM 5705, S. aureus NBRC 12732, and P. acnes JCM 6473 cells were cultured in Luria-Bertani (LB) broth, brain-heart infusion broth (Nissui), trypticase soy broth (BD Biosciences, Franklin Lakes, NJ, USA), and GAM broth (Nissui), respectively, under facultative anaerobic conditions for 4–24 h at 37 °C. C. albicans CAI4 (IFM 61937) cells were cultured in 0.5 × potato dextrose broth (PDB) supplemented with 25 μg/ml of uridine under facultative anaerobic conditions for 14 h at 30 °C. S. cerevisiae BY4742 and S288C cells were cultured in 0.5 × PDB supplemented with 30 μg/ml of uridine, histidine, and lysine and 60 μg/ml of leucine under facultative anaerobic conditions for 14 h at 27 °C. These microbial strains were purchased from the American Type Culture Collection (Manassas, VA, USA), National Institute of Technology and Evaluation (Tokyo, Japan), RIKEN BioResource Center (Tsukuba, Japan), Medical Mycology Research Center (Chiba, Japan), and GE Healthcare (Little Chalfont, UK).
Antifungal assays to determine the MIC of OsAFP1 were performed as follows. Fungal cells (1 × 10^5 cells) were suspended in 100 μl of the appropriate medium containing 0–32 μM OsAFP1 in 96-well Costar cell culture plates. After incubation, OD650 was measured using a plate reader. […] In those cases, the cultures were plated on agar plates (0.5 × PDB), and the peptide concentration at which viable cell numbers were 1% or less than that in the control culture was considered the MIC. GraphPad Prism version 6.00 for Macintosh (GraphPad Software, La Jolla, CA, USA) was used to calculate IC50 values. Experiments were independently repeated at least three times. Detailed growth conditions for each fungus are provided in the “Microorganisms and culture conditions” section above.

[3] = test system: Saccharomyces cerevisiae BY4742; test: Antifungal assay (growth inhibition, OD650); type: cell-based; conditions: S. cerevisiae BY4742; 0.5 × PDB with supplements, 27 °C, 14 h; MIC = >99% reduction of OD650
Procedure: as §1, with “These microbial strains were purchased from the American Type Culture Collection (Manassas, VA, USA), National Institute of Technology and Evaluation (Tokyo, Japan), RIKEN BioResource Center (Tsukuba, Japan), Medical Mycology Research Center (Chiba, Japan), and GE Healthcare (Little Chalfont, UK).” left out
(§2) Antifungal assays to determine the MIC of OsAFP1 were performed as follows. […] After incubation, OD650 was measured using a plate reader. […]

[4] = test system: Saccharomyces cerevisiae S288C; test: Antifungal assay (growth inhibition, OD650); type: cell-based; conditions: S. cerevisiae S288C; 0.5 × PDB with supplements, 27 °C, 14 h; MIC = >99% reduction of OD650
Procedure: as §1, with “These microbial strains were purchased from the American Type Culture Collection (Manassas, VA, USA), National Institute of Technology and Evaluation (Tokyo, Japan), RIKEN BioResource Center (Tsukuba, Japan), Medical Mycology Research Center (Chiba, Japan), and GE Healthcare (Little Chalfont, UK).” left out
as §2

[5] = test system: Escherichia coli K-12; test: Antibacterial assay (BacTiter-Glo ATP luminescence); type: cell-based; conditions: E. coli K-12; LB broth, 37 °C; 0–32 μM; MIC = >99% reduction of ATP luminescence
Procedure: as §1
(§3) Recombinant OsAFP1 and its mutants used in this study were prepared as described in “Supplementary Information”. Antibacterial assays to determine the MIC of OsAFP1 were performed using a modified BacTiter-Glo Luminescent cell viability assay kit (Promega, Madison, WI, USA). This assay quantifies ATP in bacterial cultures to determine the number of live cells. All procedures were performed following the manufacturer’s instructions. Briefly, bacterial cells (1 × 10^4 cells/ml) were cultured in 100 μl of the appropriate medium (as specified in the “Microorganisms and culture conditions” section) in the presence of 0–32 μM OsAFP1 in 96-well Costar cell culture plates. After appropriate incubation for 4–40 h, 10 μl of Lucifell ATP-eliminating reagent (Kikkoman, Chiba, Japan) was added to each well to reduce medium-derived ATP and mixed for 10 min using an orbital shaker. The cell culture (50 μl) was mixed gently with BacTiter-Glo reagent (50 μl) in a well of white Optiplate-96 plates. After incubation for 15 s, luminescence at 560 nm was measured using a plate reader. MIC was defined as the minimum concentration of OsAFP1 that reduced the sample ATP luminescence by >99% compared with that of the control culture. Experiments were independently repeated at least three times.

[6] = test system: Porphyromonas gingivalis ATCC 33277; test: as above; type: cell-based; conditions: P. gingivalis ATCC 33277; modified GAM, anaerobic, 37 °C; 0–32 μM; MIC = >99% reduction of ATP luminescence
Procedure: as §1, §3

[7] = test system: Propionibacterium acnes JCM 6473; test: as above; type: cell-based; conditions: P. acnes JCM 6473; GAM broth, 37 °C; 0–32 μM; MIC = >99% reduction of ATP luminescence
Procedure: as §1, §3

[8] = test system: Staphylococcus aureus subsp. aureus NBRC 12732; test: as above; type: cell-based; conditions: S. aureus NBRC 12732; trypticase soy broth, 37 °C; 0–32 μM; MIC = >99% reduction of ATP luminescence
Procedure: as §1, §3

[9] = test system: Streptococcus mutans JCM 5705; test: as above; type: cell-based; conditions: S. mutans JCM 5705; brain-heart infusion broth, 37 °C; 0–32 μM; MIC = >99% reduction of ATP luminescence
Procedure: as §1, §3

[10] = test system: C. albicans CAI4 cells; test: Fungicidal assay (CFU time course); type: cell-based, Candida albicans; conditions: 16 μM (4 × MIC), 30 °C, CFU count, n = 3
Procedure: C. albicans CAI4 cells (2 × 10^5 cells/ml) were treated with OsAFP1 and incubated at 30 °C for 0, 0.17, 0.5, 1, 2, and 4 h. After being washed three times with KPB, the cells were plated on agar plates (0.5 × PDB). Calculated CFUs in the plate were used as indicators of viable cells. […] Therefore, in the present assay, 4 × MIC concentration was used, because long-term OsAFP1 treatment may produce various undesirable effects other than fungicidal activity and make the assay difficult to interpret. 4 × MIC concentration was also applied in the subsequent annexin V assay and ICC staining analysis.

[11] = test system: C. albicans CAI4; test: Thermal stability (MIC of heat-treated peptide); type: cell-based, Candida albicans; conditions: peptide heated at 100 °C for 10 min, 0–8 μM, OD650, n = 3
Procedure: Antifungal assays to determine the MIC of OsAFP1 were performed as follows. Fungal cells (1 × 10^5 cells) were suspended in 100 μl of the appropriate medium containing 0–32 μM OsAFP1 in 96-well Costar cell culture plates. After incubation, OD650 was measured using a plate reader. […] In some measurements, because of aggregation of medium components, it was difficult to determine MIC values. In those cases, the cultures were plated on agar plates (0.5 × PDB), and the peptide concentration at which viable cell numbers were 1% or less than that in the control culture was considered the MIC. GraphPad Prism version 6.00 for Macintosh (GraphPad Software, La Jolla, CA, USA) was used to calculate IC50 values. Experiments were independently repeated at least three times. Detailed growth conditions for each fungus are provided in the “Microorganisms and culture conditions” section above.
Thermal stability of OsAFP1 was evaluated by comparing the MIC of heat-treated (10 min at 100 °C) peptide to the MIC of untreated peptide.

[12] = test system: C. albicans CAI4 cytoplasmic membrane; test: PI uptake assay (flow cytometry); type: cell-based, Candida albicans; conditions: 4 × IC50 (6 μM melittin, 8 μM OsAFP1, 20 or 24 μM peptide 1, 40 μM peptide 7), 30 °C, 3 h, PI 5 μg/ml, PBS control 0.1 %
Procedure: C. albicans CAI4 cells (2 × 10^5 cells/ml) were treated with OsAFP1, peptide 1, peptide 7, or melittin at 4 × IC50 concentrations (8 μM for OsAFP1, 24 μM for peptide 1, 40 μM for peptide 7, and 6 μM for melittin[52],[53]) and incubated at 30 °C for 3 h. After the addition of PI (5 μg/ml) and incubation at room temperature in the dark for 30 min, the cells were analysed using a flow cytometer equipped with a 488 nm air-cooled argon laser. At least 10,000 events per sample were recorded. As a negative control, PBS was used instead of antifungal agents, and the mixtures were treated in the same way.

[13] = test system: C. albicans CAI4 cells; test: Annexin V assay (apoptosis, epifluorescence microscopy); type: cell-based, Candida albicans; conditions: 16 μM (4 × MIC), 30 °C, 0.5 h; epifluorescence microscope
Procedure: After being washed three times with KPB, the cells were resuspended in 500 μl of 1 × binding buffer and mixed with 5 μl each of annexin V-FITC and PI reagent (BioVision, Mountain View, CA, USA). The mixtures were incubated at room temperature in the dark for 5 min, and the cells were then observed under a TE2000-S epifluorescence microscope (Nikon, Tokyo, Japan) equipped with an appropriate objective lens [CFI Plan Fluor 100 × oil (Nikon)] and bandpass filters with 542 nm excitation and 620 nm emission for PI and 494 nm excitation and 518 nm emission for FITC.

[14] = Table 2, synthetic partial peptides against C. albicans, tested up to 25 μM

Molecule: C[C@@H]1[C@H](O)[C@@H](C)/C=C/C=C/C=C/C=C/C=C/C=C/C=C/[C@H](O[C@@H]2O[C@H](C)[C@@H](O)[C@H](N)[C@@H]2O)C[C@@H]2O[C@](O)(C[C@@H](O)C[C@@H](O)[C@H](O)CC[C@@H](O)C[C@@H](O)CC(=O)O[C@H]1C)C[C@H](O)[C@H]2C(=O)O [amphotericin B]
- MIC values [1]: 0.01 to 1 µM

Molecule: CSCC[C@H](NC(=O)CNC(=O)[C@H](CCCCN)NC(=O)[C@H](Cc1ccccc1)NC(=O)[C@H](CCCNC(=N)N)NC(=O)[C@H](Cc1c[nH]cn1)NC(=O)[C@@H](N)CO)C(=O)N[C@@H](CS)C(=O)N[C@H](C(=O)N[C@@H](CO)C(=O)O)C(C)C [compound 2] (H-SHRFKGMCVS-OH)
- IC50 [2, 14]: 19 µM

Molecule: CC(C)[C@H](N)C(=O)N[C@@H](CO)C(=O)N[C@@H](CO)C(=O)N[C@@H](CC(N)=O)C(=O)N[C@@H](CC(N)=O)C(=O)N[C@@H](CS)C(=O)N[C@@H](C)C(=O)N[C@@H](CC(N)=O)C(=O)N[C@H](C(=O)O)C(C)C [compound 3] (H-VSSNNCANV-OH)
- IC50 [2, 14]: > 25 µM

Molecule: C[C@@H](O)[C@H](NC(=O)[C@@H](N)CCCNC(=N)N)C(=O)N[C@@H](CCC(=O)O)C(=O)N[C@@H](CO)C(=O)N[C@@H](Cc1ccccc1)C(=O)N1CCC[C@H]1C(=O)N[C@@H](CC(=O)O)C(=O)NCC(=O)N[C@@H](CCC(=O)O)C(=O)O [compound 5] (H-RTESFPDGE-OH)
- IC50 [2, 14]: > 25 µM

Molecule: NCCCC[C@H](NC(=O)[C@H](CS)NC(=O)[C@H](CCC(=O)O)NC(=O)CNC(=O)[C@H](CC(=O)O)NC(=O)[C@@H]1CCCN1C(=O)[C@@H](N)Cc1ccccc1)C(=O)N[C@@H](CO)C(=O)N[C@@H](Cc1c[nH]cn1)C(=O)NCC(=O)O [compound 6] (H-FPDGECKSHG-OH)
- IC50 [2, 14]: > 25 µM

Molecule: OC(Cn1cncn1)(Cn1cncn1)c1ccc(F)cc1F [fluconazole]
- MIC values [1]: 0.01 to 1 µM

Molecule: CC(C)C[C@H](NC(=O)[C@H](CS)NC(=O)[C@H](Cc1c[nH]cn1)NC(=O)[C@@H](N)CCCNC(=N)N)C(=O)N[C@@H](CO)C(=O)N[C@@H](CCC(N)=O)C(=O)N[C@@H](CO)C(=O)N[C@@H](Cc1c[nH]cn1)C(=O)N[C@@H](CCCNC(=N)N)C(=O)N[C@@H](Cc1ccccc1)C(=O)O [peptide 1] (H-RHCLSQSHRF-OH)
- IC50 [2, 14]: 6 µM

Molecule: CC(C)C[C@H](NC(=O)CNC(=O)[C@H](Cc1c[nH]cn1)NC(=O)[C@H](CO)NC(=O)[C@@H](N)CCCCN)C(=O)N[C@@H](CCC(=O)O)C(=O)N[C@@H](CCCNC(=N)N)C(=O)N[C@@H](CCCCN)C(=O)N[C@@H](CS)C(=O)N[C@@H](Cc1ccccc1)C(=O)O [peptide 7] (H-KSHGLERKCF-OH)
- IC50 [2, 14]: 10 µM

Molecule: OsAFP1: rice defensin (Os02g41904, UniProtKB Q6K209); recombinant mature peptide produced in E. coli, four disulphide bonds (RHCLSQSHRFKGMCVSSNNCANVCRTESFPDGECKSHGLERKCFCKKVC; disulfide (positions not given here); UniProt Q6K209 32-80, looked up)
- MIC ([2]; C. albicans CAI4, 1 × 10^5 cells in 100 μl 0.5 × PDB + 25 μg/ml uridine, 30 °C, 14 h, 0–32 μM, MIC = >99% reduction of OD650, repeated at least three times): 4 µM
- IC50 ([2]; read-out: half maximal inhibitory concentration (IC50), C. albicans CAI4 growth, GraphPad Prism, wild-type OsAFP1 (Fig. 1a)): 2 µM
- MIC [3]: 4 µM
- MIC [4]: 16 µM
- MIC [5]: >32 µM
- MIC [6]: >32 µM
- MIC [7]: >32 µM
- MIC [8]: >32 µM
- MIC [9]: >32 µM
- C. albicans cells died ([10]; 30 min): about 50%
- C. albicans cells died ([10]; 4 h): almost all cells died
- MIC of heat-treated peptide [11]: 8 µM
- cells stained with PI [12]: 3.6%
- annexin V-FITC fluorescence (early apoptosis) [13]: almost all fungal cells emitted fluorescence

Molecule: caspofungin
- MIC values [1]: 0.01 to 1 µM
